Drawing on patent US8569294B2, “2-(cyclic amino)-pyrimidone derivatives” (Mitsubishi Tanabe Pharma Corporation, priority 2006, dated 2013), this text covers IC50 for 17 molecules.

One may read the IC50 as the concentration that gives 50% inhibition. Higher therefore signals lower potency.

For the assay, the target named is T1, bovine cerebral TPK1 (Bos taurus, UniProt A0A3Q1MT31).
T1 construct: P-GS1 Phosphorylation by Bovine Cerebral TPK1; from tissue; host or cells: bovine cerebrum (brain)
T1 sequence (A0A3Q1MT31 1-419): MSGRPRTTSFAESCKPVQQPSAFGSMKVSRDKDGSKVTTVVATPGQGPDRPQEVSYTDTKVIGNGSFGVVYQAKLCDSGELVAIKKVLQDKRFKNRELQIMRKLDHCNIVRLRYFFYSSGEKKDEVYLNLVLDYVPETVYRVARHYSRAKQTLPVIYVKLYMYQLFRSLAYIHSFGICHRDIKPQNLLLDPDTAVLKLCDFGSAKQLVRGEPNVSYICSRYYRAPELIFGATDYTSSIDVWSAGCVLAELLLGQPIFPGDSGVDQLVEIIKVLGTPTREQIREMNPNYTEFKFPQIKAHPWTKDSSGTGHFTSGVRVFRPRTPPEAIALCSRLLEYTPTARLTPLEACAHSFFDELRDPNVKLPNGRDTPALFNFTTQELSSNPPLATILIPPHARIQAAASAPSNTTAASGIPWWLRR
The assay is described as follows: Inhibitory activity against P-GS1 phosphorylation by bovine cerebral TPK1. The assay is classed as biochemical. The settings on record: 41.7 μM [γ-32P] ATP, 25° C., 2 hours. As to the method: Inhibitory Activity of the Medicament of the Present Invention Against P-GS1 Phosphorylation by Bovine Cerebral TPK1
A mixture containing 100 mM MES-sodium hydroxide (pH 6.5), 1 mM magnesium acetate, 0.5 mM EGTA, 5 mM β-mercaptoethanol, 0.02% Tween 20, 10% glycerol, 12 μg/ml P-GS1, 41.7 μM [γ-^32P] ATP (68 kBq/ml), bovine cerebral TPK1 and a compound shown in Table (a final mixture contained 1.7% DMSO deriving from a solution of a test compound prepared in the presence of 10% DMSO) was used as a reaction system. The phosphorylation was started by adding ATP, and the reaction was conducted at 25° C. for 2 hours, and then stopped by adding 21% perchloric acid on ice cooling. The reaction mixture was centrifuged at 12,000 rpm for 5 minutes and adsorbed on P81 paper (Whatmann), and then the paper was washed four times with 75 mM phosphoric acid, three times with water and once with acetone. The paper was dried, and the residual radioactivity was measured using a liquid scintillation counter.
`Cn1c(N2CC3CCC2C(c2ccccc2)C3)nc(-c2ccncc2)cc1=O` (centres unmarked) [B9]: half-maximal inhibition (IC50) was put at 1.2 nM.
Molecule `C[C@@H]1COCCN1c1nc(-c2ccncc2F)cc(=O)n1C` [B62] had a half-maximal inhibitory concentration (IC50) of 7 nM.
`COc1ccccc1N1C[C@@H]2CN(c3nc(-c4ccncc4F)cc(=O)n3C)C[C@@H]2C1` [D16] displayed a concentration for half-maximal inhibition (IC50) of 14 nM.
Consider `Cn1c(N2CCN3CCc4ccccc4C3C2)nc(-c2ccncc2)cc1=O` (centres unmarked) [B109, 2-(1,3,4,6,7,11b-Hexahydro-pyrazino[2,1-a]isoquinolin-2-yl)-3-methyl-6-pyridin-4-yl-3H-pyrimidin-4-one], for which the IC50 is 14 nM.
Regarding `Cn1c(N2CCO[C@H]3CCCC[C@@H]32)nc(-c2ccncn2)cc1=O` (racemic) [B69, 1-Methyl-2-((4aRS,8aRS)-trans-octahydro-benzo[1,4]oxazin-4-yl)-1H-[4,4′]bipyrimidinyl-6-one], the midpoint of inhibition, the IC50, lay at 4 nM.
The molecule `C[C@@H]1CN(c2ncccn2)CCN1c1nc(-c2ccncc2F)cc(=O)n1C` [F56] returned an IC50 of 2.2 nM.
The result for `COc1cccc2c1CC[C@@H]1[C@H]2OCCN1c1nc(-c2ccncc2)cc(=O)n1C` [B37] reads 1.5 nM; that for `Cn1c(N2CCO[C@H]3c4ccccc4CC[C@@H]32)nc(-c2ccncc2F)cc1=O` [B6], 1.7 nM.
For `COc1ccc2c(c1)CC[C@H]1[C@H]2OCCN1c1nc(-c2ccncc2F)cc(=O)n1C` [B20] the value was 1.1 nM; for `C[C@H](N)c1nc(-c2ccc(N3CCN(c4nc(-c5ccncc5)cc(=O)n4C)[C@H](C)C3)cc2)no1` [F148], 2.6 nM; for `C[C@@H]1CN(c2ccccc2)CCN1c1nc(-c2ccncn2)cc(=O)n1C` [F24], 1.4 nM.
For `Cn1c(N2C3CCCC2CC3)nc(-c2ccncc2F)cc1=O` [B77] the value was 9.8 nM.
In turn, `C[C@@H]1CN(C(=O)c2ccc(N(C)C)cc2)CCN1c1nc(-c2ccncn2)cc(=O)n1C` [F69] displayed an IC50 of 2.4 nM.
`COc1cccc(N[C@@H]2CCN(c3nc(-c4ccncn4)cc(=O)n3C)C2)c1` [D42] showed an IC50 of 7.9 nM.
Molecule `Cn1c(N2CCCC2Cc2ccccc2)nc(-c2ccncc2F)cc1=O` (centres unmarked) [D95] displayed an IC50 of 5.6 nM.
For `Cn1c(N2CCO[C@H]3c4ccccc4OC[C@H]32)nc(-c2ccncn2)cc1=O` [B46] the value was 2.5 nM; for `COc1ccccc1NC1CC2CCC(C1)N2c1nc(-c2ccncc2F)cc(=O)n1C` (centres unmarked) [B16], 2.8 nM.
